{"source": "ChEMBL document CHEMBL3232781", "about": "“Fluorinated benzophenone derivatives: balanced multipotent agents for Alzheimer's disease” (Eur J Med Chem, 2014)", "key": {"Acetylcholinesterase": {"molecular_target": "Acetylcholinesterase (Homo sapiens, UniProt P22303)", "sequence (P22303 whole entry)": "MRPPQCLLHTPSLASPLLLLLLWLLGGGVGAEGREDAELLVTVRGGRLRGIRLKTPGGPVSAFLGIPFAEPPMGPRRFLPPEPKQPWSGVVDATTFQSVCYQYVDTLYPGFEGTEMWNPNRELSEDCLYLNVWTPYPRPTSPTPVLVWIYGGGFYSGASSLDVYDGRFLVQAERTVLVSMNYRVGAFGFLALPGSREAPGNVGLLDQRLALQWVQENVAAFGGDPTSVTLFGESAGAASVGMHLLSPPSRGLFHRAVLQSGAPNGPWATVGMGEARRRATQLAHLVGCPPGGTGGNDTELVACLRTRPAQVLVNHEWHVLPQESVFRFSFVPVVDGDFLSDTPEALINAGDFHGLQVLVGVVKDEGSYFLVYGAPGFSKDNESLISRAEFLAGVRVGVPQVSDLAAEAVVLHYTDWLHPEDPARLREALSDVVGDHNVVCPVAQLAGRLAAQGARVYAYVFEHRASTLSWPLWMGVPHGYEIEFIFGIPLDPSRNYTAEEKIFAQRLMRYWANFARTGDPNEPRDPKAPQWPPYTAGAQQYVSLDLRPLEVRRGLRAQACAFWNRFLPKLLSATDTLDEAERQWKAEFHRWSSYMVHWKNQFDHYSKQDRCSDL", "experiment": "Inhibition of human recombinant AChE using acetylthiocholine iodide as substrate preincubated for 20 mins by Ellman's method"}, "[1]": {"molecular_target": "Beta-secretase 1 (Homo sapiens) (UniProt P56817)", "sequence (P56817 whole entry)": "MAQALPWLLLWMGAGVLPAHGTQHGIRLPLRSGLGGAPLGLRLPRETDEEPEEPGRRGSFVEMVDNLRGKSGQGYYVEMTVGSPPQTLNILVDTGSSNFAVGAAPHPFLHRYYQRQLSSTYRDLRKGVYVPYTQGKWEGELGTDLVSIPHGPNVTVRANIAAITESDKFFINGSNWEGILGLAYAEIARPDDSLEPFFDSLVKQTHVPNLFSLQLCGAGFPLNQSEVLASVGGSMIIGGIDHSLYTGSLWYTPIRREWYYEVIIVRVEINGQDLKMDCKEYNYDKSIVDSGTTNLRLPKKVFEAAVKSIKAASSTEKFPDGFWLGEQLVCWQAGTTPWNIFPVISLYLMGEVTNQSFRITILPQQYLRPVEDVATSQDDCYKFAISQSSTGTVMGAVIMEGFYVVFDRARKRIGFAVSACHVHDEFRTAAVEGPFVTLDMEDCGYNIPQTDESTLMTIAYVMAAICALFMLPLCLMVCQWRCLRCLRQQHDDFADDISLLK", "experiment": "Inhibition of human recombinant BACE-1 using M-2420 as substrate up to 4 uM incubated for 1 hr prior to substrate addition measured after 15 mins by FRET assay"}, "[2]": {"molecular_target": "Beta-secretase 1 (Homo sapiens) (UniProt P56817)", "experiment": "Inhibition of human recombinant BACE-1 using M-2420 as substrate at 5 uM incubated for 1 hr prior to substrate addition measured after 15 mins by FRET assay relative to control"}, "SH-SY5Y [3]": {"system": "SH-SY5Y", "experiment": "Antioxidant activity in human SH-SY5Y cells assessed as inhibition of t-BuOOH-induced intracellular ROS formation at 3 to 5 uM after 30 mins by dihydroethidium-based spectrofluorometric analysis", "assay_type": "functional, cell-based"}, "SH-SY5Y [4]": {"system": "SH-SY5Y", "experiment": "Antioxidant activity in human SH-SY5Y cells assessed as inhibition of amyloid beta (25 to 35)-induced intracellular ROS formation at 3 to 5 uM after 3 hrs by dihydroethidium-based fluorescence microscopic analysis relative to control", "assay_type": "functional"}, "[5]": {"molecular_target": "Beta-secretase 1 (Homo sapiens) (UniProt P56817)", "experiment": "Inhibition of human recombinant BACE-1 using M-2420 as substrate at 3 uM incubated for 1 hr prior to substrate addition measured after 15 mins by FRET assay relative to control"}, "SH-SY5Y [6]": {"system": "SH-SY5Y", "experiment": "Neurotoxicity in human SH-SY5Y cells assessed as decrease in cell viability at 10 to 50 uM after 24 hrs by MTT assay", "assay_type": "toxicity, cell-based"}, "[7]": {"molecular_target": "Beta-secretase 1 (Homo sapiens) (UniProt P56817)", "experiment": "Inhibition of human recombinant BACE-1 using M-2420 as substrate at 3.38 uM incubated for 1 hr prior to substrate addition measured after 15 mins by FRET assay relative to control"}, "SH-SY5Y [8]": {"system": "SH-SY5Y", "experiment": "Antioxidant activity in human SH-SY5Y cells assessed as inhibition of amyloid beta (25 to 35)-induced intracellular ROS formation at 500 uM after 3 hrs by dihydroethidium-based fluorescence microscopic analysis relative to control", "assay_type": "functional"}, "SH-SY5Y [9]": {"system": "SH-SY5Y", "experiment": "Antioxidant activity in human SH-SY5Y cells assessed as inhibition of t-BuOOH-induced intracellular ROS formation at 500 uM after 30 mins by dihydroethidium-based spectrofluorometric analysis relative to control", "assay_type": "functional", "details": "0.5 h"}}, "note": "The source made the active and inactive calls. No cut-off for these calls is given here.", "data": [{"smiles": "CN1CCN(Cc2ccc(C(=O)c3ccc(O)c(F)c3)cc2)CC1", "values": [{"measurement": "inhibition", "setting": "Acetylcholinesterase", "result": "inactive"}, {"measurement": "inhibition", "setting": "[1]", "result": "inactive"}]}, {"smiles": "COc1ccc(C(=O)c2ccc(CN(C)Cc3ccccc3)cc2)cc1OC", "values": [{"measurement": "inhibition", "setting": "[2]", "result": 20, "unit": "%"}]}, {"smiles": "O=C(c1ccc(CN2CCN(Cc3ccccc3)CC2)cc1)c1ccc(O)c(F)c1", "values": [{"measurement": "inhibition", "setting": "Acetylcholinesterase", "result": "inactive"}, {"measurement": "inhibition", "setting": "[1]", "result": "inactive"}]}, {"smiles": "CN(Cc1ccc(C(=O)c2ccc(O)c(F)c2)cc1)Cc1cccc(O)c1", "values": [{"measurement": "inhibition", "setting": "Acetylcholinesterase", "result": "inactive"}, {"measurement": "inhibition", "setting": "[1]", "result": "inactive"}]}, {"smiles": "CN(Cc1ccccc1)Cc1ccc(C(=O)c2ccc(O)c(F)c2)cc1", "values": [{"measurement": "inhibition", "setting": "SH-SY5Y [3]", "result": "Active"}, {"measurement": "IC50", "setting": "Acetylcholinesterase", "result": 3660, "unit": "nM"}, {"measurement": "Imax", "setting": "SH-SY5Y [4]", "result": 30, "unit": "%"}, {"measurement": "inhibition", "setting": "[5]", "result": 40.8, "unit": "%"}, {"measurement": "Activity", "setting": "SH-SY5Y [6]", "result": "Toxic"}]}, {"smiles": "CN(C)CCN(C)Cc1ccc(C(=O)c2ccc(O)c(F)c2)cc1", "values": [{"measurement": "inhibition", "setting": "Acetylcholinesterase", "result": "inactive"}, {"measurement": "inhibition", "setting": "[5]", "result": 13.5, "unit": "%"}]}, {"smiles": "COc1ccc(C(=O)c2ccc(CN(C)Cc3ccccc3)cc2)cc1F", "values": [{"measurement": "inhibition", "setting": "SH-SY5Y [3]", "result": "inactive"}, {"measurement": "inhibition", "setting": "SH-SY5Y [4]", "result": "inactive"}, {"measurement": "inhibition", "setting": "[7]", "result": 10.7, "unit": "%"}, {"measurement": "Activity", "setting": "SH-SY5Y [6]", "result": "Non-toxic"}]}, {"smiles": "O=C(c1ccc(CN2CCC(CCO)CC2)cc1)c1ccc(O)c(F)c1", "values": [{"measurement": "inhibition", "setting": "SH-SY5Y [3]", "result": "Active"}, {"measurement": "IC50", "setting": "Acetylcholinesterase", "result": 2320, "unit": "nM"}, {"measurement": "Imax", "setting": "SH-SY5Y [4]", "result": 30, "unit": "%"}, {"measurement": "inhibition", "setting": "[5]", "result": 58.7, "unit": "%"}, {"measurement": "Activity", "setting": "SH-SY5Y [6]", "result": "Non-toxic"}]}, {"smiles": "O=C(c1ccc(CN2CCC(O)CC2)cc1)c1ccc(O)c(F)c1", "values": [{"measurement": "inhibition", "setting": "Acetylcholinesterase", "result": "inactive"}, {"measurement": "inhibition", "setting": "[5]", "result": 32.8, "unit": "%"}]}, {"smiles": "CN(Cc1ccccc1)Cc1ccc(C(=O)c2ccc(O)cc2)cc1", "values": [{"measurement": "inhibition", "setting": "[1]", "result": "inactive"}]}, {"smiles": "O=C(c1ccc(CN2CCN(c3ccccc3)CC2)cc1)c1ccc(O)c(F)c1", "values": [{"measurement": "inhibition", "setting": "Acetylcholinesterase", "result": "inactive"}, {"measurement": "inhibition", "setting": "[1]", "result": "inactive"}]}, {"smiles": "CN(Cc1ccc(C(=O)c2ccc(O)c(F)c2)cc1)C1CCCCC1", "values": [{"measurement": "inhibition", "setting": "Acetylcholinesterase", "result": "inactive"}, {"measurement": "inhibition", "setting": "[5]", "result": 36.2, "unit": "%"}]}, {"smiles": "Cc1ccc(C(=O)c2ccc(O)c(F)c2)cc1", "values": [{"measurement": "inhibition", "setting": "Acetylcholinesterase", "result": "inactive"}, {"measurement": "inhibition", "setting": "[5]", "result": 35.4, "unit": "%"}]}, {"smiles": "COc1ccc(C(=O)c2ccc(CN(C)Cc3ccccc3)cc2)cc1", "values": [{"measurement": "inhibition", "setting": "[1]", "result": "inactive"}]}, {"smiles": "CC(=O)N[C@@H](CS)C(=O)O", "note": "[ACETYLCYSTEINE]", "values": [{"measurement": "inhibition at 500 µM", "setting": "SH-SY5Y [8]", "result": 35, "unit": "%"}, {"measurement": "inhibition at 500 µM", "setting": "SH-SY5Y [9]", "result": 35, "unit": "%"}]}, {"smiles": "CN(CCO)Cc1ccc(C(=O)c2ccc(O)c(F)c2)cc1", "values": [{"measurement": "inhibition", "setting": "Acetylcholinesterase", "result": "inactive"}, {"measurement": "inhibition", "setting": "[5]", "result": 46.7, "unit": "%"}]}]}
